# Test results published in US6066633A, “Metalloproteinase inhibitors” (Adir et Compagnie, priority 1997, dated 2000).
# Counter-ions that a name gives are not always drawn.
# Experiments:
# ovarian cancers = conditions: Becket et al., DDT 1996, 1 (1), 16; cited from earlier work
# [1] = biological target: T1, MMP-1 (interstitial collagenase) (Homo sapiens, UniProt P03956); assay: Enzymatic Inhibition of Metalloproteinases (MMP-1); assay type: biochemical; conditions: 20 μM substrate, pH 7.7, 37° C., six hours; read-out: IC50 for the enzyme MMP-1
# T1 sequence (P03956 100-469): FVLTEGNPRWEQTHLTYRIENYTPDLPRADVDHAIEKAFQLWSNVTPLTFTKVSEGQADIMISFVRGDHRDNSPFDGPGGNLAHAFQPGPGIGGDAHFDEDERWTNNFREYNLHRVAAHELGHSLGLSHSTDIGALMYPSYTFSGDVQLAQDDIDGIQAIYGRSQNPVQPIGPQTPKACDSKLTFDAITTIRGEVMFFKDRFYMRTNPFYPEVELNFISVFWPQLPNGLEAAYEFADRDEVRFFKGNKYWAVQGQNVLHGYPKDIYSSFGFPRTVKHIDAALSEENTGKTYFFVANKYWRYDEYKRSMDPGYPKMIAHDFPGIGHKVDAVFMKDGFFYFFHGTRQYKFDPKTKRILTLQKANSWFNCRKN
# Method: (§1) Enzymatic Inhibition of Metalloproteinases
# (§2) Four recombinant human enzymes MMP-1 (interstitial collagenase), MMP-2 (72 kDa gelatinase A), MMP-3 (stromelysin 1) and MMP-9 (92 kDa gelatinase B) are activated with APMA (4-aminophenylmercuric acetate).
# (§3) The enzymatic tests are carried out using a peptido-mimetic substrate:
# (§4) DnpProChaGlyCys(Me)HisAlaLys(Nma)NH2,
# (§5) which is cleaved between the glycine and the cysteine to yield a fluorescent derivative (Anal. Biochem., 212, 58-64, 1993).
# (§6) The reactions, carried out in a buffer of 50 mM Tris, 200 mM NaCl, 5 mM CaCl2, 0.1% Brij 35 at pH 7.7, are initiated using 20 μM substrate in a total volume of 100 μl at 37° C. The fluorescence obtained after six hours is read in a 96-well plate in a fluorimeter equipped with a combination of 340 nm and 400 nm filters for excitation and emission.
# [2] = test system: neovascularisation (pseudo-vessels) from portions of thoracic aorta; assay: In Vitro Angiogenesis (thoracic aorta portions in type I collagen gel); assay type: cell-based, male Fischer 344 rats; conditions: Rattus norvegicus, 120 h, five days of culture in a medium without serum, vascular density
# From the text: Portions of thoracic aorta of male Fischer 344 rats aged from 8 to 12 weeks are immersed in a type I collagen gel according to the method of Nicosia et Ottinetti (1990). After five days of culture in a medium without serum, the preparations are examined using a microscope and the formation of pseudo-vessels is quantified in terms of vascular density after digitisation and image analysis.
# MMP-3 (stromelysin 1) = MMP-3 (stromelysin 1) (Homo sapiens, UniProt P08254); assay: Enzymatic Inhibition of Metalloproteinases (MMP-3); assay type: biochemical; conditions: 20 μM substrate, pH 7.7, 37° C., six hours; read-out: IC50 for the enzyme MMP-3
# Sequence of MMP-3 (stromelysin 1) (P08254 100-477): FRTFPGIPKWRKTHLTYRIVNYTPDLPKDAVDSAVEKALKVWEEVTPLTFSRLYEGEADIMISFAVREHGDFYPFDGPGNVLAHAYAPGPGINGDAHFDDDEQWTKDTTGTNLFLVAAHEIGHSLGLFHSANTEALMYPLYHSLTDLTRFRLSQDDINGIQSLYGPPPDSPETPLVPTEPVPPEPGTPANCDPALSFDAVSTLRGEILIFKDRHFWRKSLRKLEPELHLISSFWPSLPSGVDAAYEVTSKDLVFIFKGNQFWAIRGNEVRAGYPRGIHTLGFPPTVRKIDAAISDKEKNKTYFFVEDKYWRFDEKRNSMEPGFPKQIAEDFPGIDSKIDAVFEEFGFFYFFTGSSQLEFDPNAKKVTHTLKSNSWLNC
# Method: as §1, §2, §3, §4, §5, §6
# [3] = biological target: MMP-9 (92 kDa gelatinase B) (Homo sapiens, UniProt P14780); assay: Enzymatic Inhibition of Metalloproteinases (MMP-9); assay type: biochemical; conditions: 20 μM substrate, pH 7.7, 37° C., six hours; read-out: IC50 for the enzyme MMP-9
# Sequence of MMP-9 (92 kDa gelatinase B) (P14780 107-707 limits assumed): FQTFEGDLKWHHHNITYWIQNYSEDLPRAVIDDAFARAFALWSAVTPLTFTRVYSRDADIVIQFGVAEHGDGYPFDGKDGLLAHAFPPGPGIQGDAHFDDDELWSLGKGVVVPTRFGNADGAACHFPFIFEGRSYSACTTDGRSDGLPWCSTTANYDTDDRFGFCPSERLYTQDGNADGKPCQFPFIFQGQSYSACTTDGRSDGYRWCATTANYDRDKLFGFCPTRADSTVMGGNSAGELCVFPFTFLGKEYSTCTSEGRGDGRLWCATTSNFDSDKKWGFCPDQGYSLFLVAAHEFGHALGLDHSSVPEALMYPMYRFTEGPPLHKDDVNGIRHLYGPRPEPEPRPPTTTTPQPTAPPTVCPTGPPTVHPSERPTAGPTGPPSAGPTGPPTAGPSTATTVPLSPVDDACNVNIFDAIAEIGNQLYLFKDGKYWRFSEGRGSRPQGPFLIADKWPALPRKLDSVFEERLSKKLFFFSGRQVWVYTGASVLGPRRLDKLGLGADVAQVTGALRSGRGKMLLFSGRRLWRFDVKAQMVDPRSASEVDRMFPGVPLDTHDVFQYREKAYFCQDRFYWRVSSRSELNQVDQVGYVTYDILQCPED
# Method: as §1, §2, §3, §4, §5, §6
# [4] = biological target: T2, MMP-2 (72 kDa gelatinase A) (Homo sapiens, UniProt P08253); assay: Enzymatic Inhibition of Metalloproteinases (MMP-2); assay type: biochemical; conditions: 20 μM substrate, pH 7.7, 37° C., six hours; read-out: IC50 for the enzyme MMP-2
# T2 sequence (P08253 110-660): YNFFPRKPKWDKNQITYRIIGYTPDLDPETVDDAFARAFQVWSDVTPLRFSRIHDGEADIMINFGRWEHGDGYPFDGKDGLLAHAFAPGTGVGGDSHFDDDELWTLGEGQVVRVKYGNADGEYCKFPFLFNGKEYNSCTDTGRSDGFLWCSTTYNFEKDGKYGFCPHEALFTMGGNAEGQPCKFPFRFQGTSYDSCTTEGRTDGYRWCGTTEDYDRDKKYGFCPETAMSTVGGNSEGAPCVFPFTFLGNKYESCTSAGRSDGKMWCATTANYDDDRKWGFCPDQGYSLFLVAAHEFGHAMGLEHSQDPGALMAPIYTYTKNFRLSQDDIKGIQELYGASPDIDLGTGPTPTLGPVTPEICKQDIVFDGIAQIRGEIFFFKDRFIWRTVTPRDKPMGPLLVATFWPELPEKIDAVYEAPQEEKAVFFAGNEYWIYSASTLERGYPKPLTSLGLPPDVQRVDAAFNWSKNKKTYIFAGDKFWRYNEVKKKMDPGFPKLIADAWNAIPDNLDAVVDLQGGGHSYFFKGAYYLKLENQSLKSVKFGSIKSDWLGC
# Method: as §1, §2, §3, §4, §5, §6
compound,measurement,setting,value
CNC(=O)C(Cc1ccccc1)NC(=O)C(CC(C)C)C(CSc1cccs1)C(=O)NO (centres unmarked) [BB94],anti-tumour activity in clinical use,ovarian cancers,active in ovarian cancers
"COc1ccc(S(=O)(=O)N2Cc3c(c4ccccc4n3CC(=O)NCCN3CCOCC3)C[C@@H]2C(=O)NO)cc1 [Example 2, 2-[(4-Methoxyphenyl)sulphonyl]-9-[(2-morpholin-4-ylethylcarbamoyl)methyl]-2,3,4,9-tetrahydro-1H-β-carboline-(3R)-(N-hydroxy)carboxamide Acetate]",IC50,[1],32.6 nM
same,inhibition at 1 µM,[2],50 to 100%
"COc1ccc(S(=O)(=O)N2Cc3c(c4ccccc4n3CC(=O)NCCSCCN3CCOCC3)C[C@@H]2C(=O)NO)cc1 [Example 11, 2-[(4-Methoxyphenyl)sulphonyl]-9-{[2-(2-morpholin-4-ylethylsulphanyl)ethylcarbamoyl]methyl}-2,3,4,9-tetrahydro-1H-β-carboline-(3R)-(N-hydroxy)carboxamide Hydrochloride]",IC50,MMP-3 (stromelysin 1),3.1 nM
same,IC50,[3],0.1 nM
same,IC50,[4],1.6 nM
"COc1ccc(S(=O)(=O)N2Cc3c(c4ccccc4n3CC(=O)NCCSCCCN3CCOCC3)C[C@@H]2C(=O)NO)cc1 [Example 13, 2-[(4-Methoxyphenyl)sulphonyl]-9-{[2-(3-morpholin-4-ylpropylsulphanyl)ethylcarbamoyl]methyl}-2,3,4,9-tetrahydro-1H-β-carboline-(3R)-(N-hydroxy)carboxamide Hydrochloride]",inhibition at 1 µM,[2],50 to 100%
"COc1ccc(S(=O)(=O)N2Cc3c(c4ccccc4n3CC(=O)N(C)CCN3CCOCC3)C[C@@H]2C(=O)NO)cc1 [Example 15, 2-[(4-Methoxyphenyl)sulphonyl]-9-[N-methyl-(2-morpholin-4-ylethylcarbamoyl)methyl]-2,3,4,9-tetrahydro-1H-β-carboline-(3R)-(N-hydroxy)carboxamide Hydrochloride]",inhibition at 1 µM,[2],50 to 100%
